Test results published in patent publication US20240180485A1, “METHOD AND DEVICE FOR INDUCING HYPOMETABOLIC STATE IN SUBJECT WITH DISEASE” (UNIVERSITY OF TSUKUBA, priority 2021, published 2024).

Tests used:
wild-type mice = test: Metabolic state induced by IP CHA in wild-type mice
Protocol: The adenosinea receptor agonist CHA (N6-cyclohexyladenosine, Sigma-Aldrich, C9901) was dissolved in physiological saline at a concentration of 250 μg/mL, and the resulting solution was intraperitoneally administered to each mouse at a dose of 2.5 mg/kg.
In addition, the metabolic state induced by systemic delivery of the adenosine A1AR agonist (6)N-cyclohexyladenosine (CHA), which is used to induce a hypothermic state, was also investigated^19.

[1] = test system: Qrfp-iCre; Rosa26^dreaddm3 mice; test: Thermographic surface body temperature and motor activity after CNO in Qrfp-iCre; Rosa26^dreaddm3 mice; type: in vivo, mouse
From the text: For thermographic analysis, the mice were placed in an experimental cage (25×15×10 cm) and monitored by using an infrared thermal imaging camera (InfReC R500 EX; NIPPON AVIONICS) placed 30 cm above the cage floor. In order to clearly detect the surface temperature, the dorsal hair was removed by using hair clippers one day before the start of the experiment. Thermograms of DREADD and optogenetic experiments were collected at 0.5 Hz and 1 Hz, respectively, and analyzed by using the InfReC Analyzer NS9500 Professional software (NIPPON AVIONICS). The highest temperature in one frame was used as TS of the animal (FIG. 1d).
The pyroglutamylated RFamide peptide (QRFP), a hypothalamic neuropeptide, was originally discovered through a bioinformatics approach aimed at the discovery of a new RFamide peptide^9,10. The Qrfp peptide was also identified and purified from the rat brain as an endogenous ligand for the orphan G-protein-coupled receptor hGPR103^11. The prepro-Qrfp mRNA is localized only in the hypothalamus and is distributed in the periventricular nucleus (Pe), the lateral hypothalamus (LHA), and the tuber cinereum (TC) 11. Orfp has previously been implicated in food intake, sympathetic regulation, and anxiety^11,12. The inventors prepared mice (Qrfp-iCre mice) having codon-improved Cre recombinase (iCre) knocked-in into the Qrfp gene. In order to obtain mice (Qrfp-iCre; Rosa26^dreaddm3 mice) in which hM3Dq-mCherry was expressed only in iCre-expressing neurons, the inventors crossbred […] with Rosa26^dreadm3 mice having an upstream floxed transcription arrest element inserted at the Rosa26 gene locus. […] The decrease in Ts started about 5 minutes after CNO administration and lasted for approximately 12 hours. After that, the mice spontaneously recovered from the hypothermic state without external rewarming.

[2] = test system: hM3Dq-mCherry-expressing neurons; test: Current-clamp recording of hypothalamus slices with bath-applied CNO; type: cell-based, mouse; conditions: bath application; CNO 1 μM; 30° C.
Protocol: The mice were decapitated under deep anesthesia using isoflurane (Pfizer). The brains were extracted and cooled in an ice-cold cutting solution containing the following (mM): 125 mM choline chloride, 25 mM NaHCO3, 10 mM D(+)-glucose, 7 mM MgCl2, 2.5 mM KCl, 1.25 mM NaH2PO4, and 0.5 mM CaCl2 bubbled with O2 (95%) and CO2 (5%). Horizontal brain slices (250 μm in thickness) including the hypothalamus were prepared by using a vibratome (VT1200S, Leica) and were maintained at room temperature for 1 hour in artificial CSF (ACSF) containing the following (mM): 125 mM NaCl, 26 mM NaHCO3, 10 mM D(+)-glucose, 2.5 mM KCl, 2 mM CaCl2), and 1 mM MgSO4 bubbled with O2 (95%) and CO2 (5%). The electrodes (5 to 8 MΩ) were filled with an internal solution containing the following (mM): 125 mM K-gluconate, 10 mM HEPES, 10 mM phosphocreatine, 0.05 mM tolbutamide, 4 mM NaCl, 4 mM ATP, 2 mM MgCl2, 0.4 mM GTP, and 0.2 mM EGTA, pH 7.3, adjusted with KOH). Firing of hM3Dq-mCherry-expressing neurons was recorded in current-clamp mode at a temperature of 30° C. CNO (1 μM) was bath-applied, and the effect was investigated. The membrane potential and data acquisition were controlled by using a combination of a MultiClamp 700B amplifier, a Digidata 1440A A/D converter, and Clampex 10.3 software (Molecular Devices). […]

Q-hM3D mice [3] = test: Body temperature, oxygen consumption, heart rate and respiration after CNO IP in Q-hM3D mice; type: in vivo, mouse
[4] = test system: neurons in AVPe, MPA, and Pe; test: Fos immunostaining after CNO IP in Q-hM3D mice; type: in vivo, mouse; conditions: 90 minutes after CNO IP
Protocol: Each mouse was deeply anesthetized with isoflurane, transcardially perfused with 10% sucrose in water, and subsequently perfused with ice-cooled 4% paraformaldehyde (4% PFA) in a 0.1 M phosphate buffer having a pH of 7.4, and the brain was removed. The brain was left in 4% PFA overnight at 4° ° C., then fixed, incubated overnight at 4° C. in 30% sucrose in a 0.1 M phosphate buffered saline (PBS) having a pH of 7.4, immersed in a Tissuue-Tek O.C.T. compound (Sakura) in a cryomold, and frozen at −80° C. until sectioned. The brain was sliced coronally by using a cryostat (CM1860, Leica) every 50 μm into four equal series, collected in a 6-well plate filled with ice-cooled PBS, and washed three times with PBS at room temperature (RT). Unless otherwise specified, the following incubation step was carried out with gently shaking on an orbital shaker. Brain sections were incubated for 1 hour at room temperature in 1% Triton X-100 in PBS. […]
The primary antibodies used in the present study were rabbit anti-cFos (1:4000, ABE457, Millipore), goat anti-mCherry (1:15000, AB0040-200, SICGEN), rat anti-GFP (1:5000, 04404-84, NACALAI TESQUE), mouse anti-TH (1:1000, sc-25269, Santa Cruz Biotechnology), mouse anti-orexin A (1:200, sc-80263, Santa Cruz Biotechnology), and rabbit anti-MCH (1:2000, M8440, SIGMA). […] Brain regions were determined by using mouse brain maps from Paxinos and Franklin^36.

Q-hM3D mice [5] = conditions: mouse, in vivo
From the text: In order to evaluate the thermoregulatory system under QIH and normal conditions, the heat loss and the heat production of the animals were described by a hierarchical multilayer model (FIGS. 3c to 3k, code folder QIH_GTRH). Three parameters of G, TR, and H under two metabolic conditions, that is, normal and QIH, were estimated from a metabolically stable state of the animals at various TAs. […] In brief, a linear model consisting of the controllable parameter TA and the observable parameters TB and VO2 was fitted to the experimental results for both TB and VO2 by using TA as a predictor having normally distributed noise. Next, G, TR, and H were estimated by using the posterior distributions of the slope and the intercept coefficient of each model. In this analysis, the prior probability density function of the standard deviation of noise was a standard half-normal distribution, and the other parameters used a positive region of a uniform distribution except for the intercept coefficient of TB, which used a uniform distribution due to negative values.
In order to evaluate this, feature analysis of the thermoregulatory system of mice during QIH was carried out. […] Q-hM3D mice were prepared, and TB and VO2 were recorded during QIH at various TAs (8, 12, 16, 20, 24, 28, and 32° C.) (FIG. 3a). […]

[6] = test system: AVPe/MPA including Q-neurons; conditions: AAV10-CaMKIIα-hM3Dq-mCherry injected into AVPe/MPA; cited from earlier work
[7] = centrally administered; cited from earlier work
[8] = surface body temperature, thermographic camera

Question: Which “TB and VO2 when TA was set to 12° C.” value (wild-type mice; IP 2.5 mg/kg, CHA-induced hypothermia) does the source give for `OC[C@H]1O[C@@H](n2cnc3c(NC4CCCCC4)ncnc32)[C@H](O)[C@@H]1O` [CHA, N6-cyclohexyladenosine] here?
Answer: further decreased

Question: What about the “reaction to low TA (increase in VO2, posture, shivering)” value (wild-type mice; IP 2.5 mg/kg, TA 12° C.) of the same compound?
Answer: did not react to a low TA

Question: What about the “induction of hypothermic/hypometabolic state” value (wild-type mice; IP injection 2.5 mg/kg) of the same compound?
Answer: effectively induced a hypothermic/hypometabolic state

Question: With `C[N+]1([O-])CCN(C2=Nc3cc(Cl)ccc3Nc3ccccc32)CC1` [CNO, clozapine N-oxide] as the compound, how does the “hypothermia accompanying the CNO-induced immobile state” value ([1]; FIG. 1b) read?
Answer: remarkable and sustained hypothermia

Question: What about the “start of severe and sustained immobile state after injection” value ([1]; intraperitoneal (IP) injection) of the same compound?
Answer: about 30 minutes

Question: What about the “duration of decrease in Ts” value [1, 8] of the same compound?
Answer: approximately 12 hours

Question: What about the “start of decrease in Ts after administration” value [1, 8] of the same compound?
Answer: about 5 minutes

Question: And the “excitation of mCherry-positive neurons” value [2]?
Answer: strongly excited

Question: What about the “induction of QIH” value (Q-hM3D mice [3]; CNO injection, before in situ hybridization) of the same compound?
Answer: effectively induced QIH

Question: What about the “QIH after repeated injections in the same mice” value (Q-hM3D mice [3]; FIG. 1h) of the same compound?
Answer: reproducible

Question: What about the “duration of very low TB state (below 30° C.)” value (Q-hM3D mice [3]; IP injection, FIG. 1d) of the same compound?
Answer: ≥ 48 h

Question: And the “duration of QIH with a TB of less than 30° C.” value (Q-hM3D mice [3]; TA=20° C., one dose 1 mg/kg)?
Answer: ≥ 48 h

Question: What about the “time for VO2 to fully return to normal” value (Q-hM3D mice [3]; TA=20° C., one dose 1 mg/kg) of the same compound?
Answer: about 1 week

Question: What about the “hypothermia compared with Qrfp-iCre; Rosa26^dreaddm3 mice” value (Q-hM3D mice [3]; mouse, in vivo, ip) of the same compound?
Answer: deeper, longer-lasting hypothermia

Question: And the “O2 consumption rate (VO2) in the CNO-induced hypothermic state” value (Q-hM3D mice [3]; respiratory gas analysis, FIG. 1g)?
Answer: remarkable decrease

Question: And the “action of CNO on TB with TeTxLC co-expression” value (Q-hM3D mice [3]; simultaneous injection of AAV2/9-hSyn-DIO-TeTxLC-eYFP and AAV10-EF1α-DIO-hM3Dq-mCherry)?
Answer: completely eliminated

Question: And the VO2 (Q-hM3D mice [3]; two hours after CNO injection, 3.60 before)?
Answer: 1.17 mL/g/h

Question: What about the respiratory rate (Q-hM3D mice [3]; two hours after CNO injection, 333 before, tidal volume below detection limit) of the same compound?
Answer: undetectable

Question: And the heart rate (Q-hM3D mice [3]; two hours after CNO injection, 758 two hours before, average of n=3)?
Answer: 215 beats/min

Question: And the “in vivo excitation of neurons (anti-Fos and anti-mCherry)” value [4]?
Answer: numerous mCherry and Fos double-positive neurons

Question: And the “difference between the medians of TR, normal vs QIH” value (Q-hM3D mice [5])?
Answer: 8.41 °C

Question: And the “reduction in the median of H in QIH from the normal state” value (Q-hM3D mice [5])?
Answer: 95.3%

Question: And the “induction of QIH in rats” value [6]?
Answer: induced QIH with hypothermia and hypometabolism

Question: Which “effect on sympathetic nerve outflow, heart rate and blood pressure” value [7] does the source give for “pyroglutamylated RFamide peptide (QDEGSEATGFLPAAGEKTSGPLGNLAEELNGYSRKKGGFSFRF; QRF-amide; UniProt P83859 91-133, looked up) [Qrfp, hypothalamic neuropeptide, endogenous ligand for the GPR103 receptor]” here?
Answer: increases sympathetic nerve outflow and increases the heart rate and the blood pressure
